Results: patent US20220288404A1, “METHODS FOR APPLYING TUMOR TREATING FIELDS IN COMBINATION WITH CANCER TREATING THERAPEUTICS” (THE BOARD OF REGENTS OF THE UNIVERSITY OF TEXAS SYSTEM, priority 2021, published 2022)

Experiments:
Type in all cases: cell-based
[1] = test system: Panc-1 cells; experiment: Clonogenic cell survival assay, Panc-1 cells; settings: for surviving fraction: agent as shown in figure; for CI AZD + 2Gy / CI TTFields + 2Gy + AZD / CI TTFields + AZD / CI Irino + 2Gy / CI TTFields + Irino / CI TTFields + Irino + 2Gy / CI 2Gy + Olap / CI TTFields + 2Gy + Olap / CI TTFields + Olap: CI>1 synergistic
Procedure: (§1) Using certain embodiments disclosed herein, TTFields in combination with various inhibitors and/or radiation treatment (IR) were applied to NSCLC cells or pancreatic cancer cells. For example, a predetermined inhibitor at a predetermined concentration was delivered to NSCLC cells or pancreatic cancer cells, and the cells were immediately exposed to TTFields (e.g., 100-250 kHz and 1-20 V/cm v/cm) for about 24, […], or 72 hours. The predetermined concentration was a cell line specific concentration for optimal target cell killing.
(§2) Olaparib was given concomitant with TTFields. Radiation was given 24, 48 or 72 h after the initiation of TTFields and specific agents. […] Values greater than 1.0 are considered as synergistic, that is, greater than the sum of the individual responses. The following formulas were used for calculating CI: SF=Survival Fraction; CI (TTFields)+(2Gy)=(SF2Gy×SFTTFields)/SF2Gy+TTFields; CI(TTFields)+(Olap)=(SFOlap×SFTTFields)/SFOlap+TTFields; CI (2Gy)+(Olap)=(SF2Gy×SFOlap)/SF2Gy+Olap; and CI (TTFields)+(2Gy)+(Olap)=(SF2Gy×SFOlap×SFTTFields)/SFTTFields+2Gy+Olap. […] Based upon the Highest Single Agent […] approach. The calculation for the Combination Index can be found below.
(§3) FIGS. 4 and 5 depict example effects of TTFields, AZD6738, radiation, and a combination thereof on non-small cell lung cancer cells (NSCLC) and pancreatic cancer cell, respectively. In particular, FIGS. 4 and 5 show TTFields exposure synergistically increases the effects of ATR inhibitor AZD6738 on NSLCL cells (FIG. 4) survival and pancreatic cancer cell (FIG. 5) survival. TTFields were used together with ATR inhibitor AZD6738 and radiation (IR). A synergistic effect was observed when AZD6738 and IR were combined with TTFields using the highest single agent (HSA) approach. The following formulas were used for calculating CI: SF=Survival Fraction; CI (TTFields)+(2Gy)=(SF2Gy×SFTTFields)/SF2Gy+TTFields; CI(TTFields)+(AZD)=(SFAZD×SFTTFields)/SFAZD+TTFields; CI (2Gy)+(AZD)=(SF2Gy×SFAZD)/SF2Gy+AZD; and CI (TTFields)+(2Gy)+(AZD)=(SF2Gy×SFAZD×SFTTFields)/SFTTFields+2Gy+AZD.
(§4) The following formulas are used for calculating the combination Index: SF=Survival Fraction; CI (TTFields)+(2Gy)=(SF2Gy×SFTTFields)/SF2Gy+TTFields; CI(TTFields)+(Irino)=(SFIrino×SFTTFields)/SFIrino+TTFields; CI (2Gy)+(Irino)=(S2Gy×SFIrino)SF2Gy+Irino; and CI (TTFields)+(2Gy)+(Irino)=(SF2Gy×SFIrino×SFTTFields)/SFTTFields+2Gy+Irino.

[2] = test system: 04.03 cells; experiment: Clonogenic cell survival assay, 04.03 cells; settings: for surviving fraction: agent as shown in figure; for CI AZD + 2Gy / CI TTFields + 2Gy + AZD / CI TTFields + AZD / CI 2Gy + Olap / CI TTFields + 2Gy + Olap / CI TTFields + Olap: CI>1 synergistic
Procedure: as §1, §2, §3

[3] = test system: H1299 cells; experiment: Clonogenic cell survival assay, H1299 cells; settings: for CI 5FU + 2Gy / CI TTFields + 5FU / CI TTFields + 5FU + 2Gy / CI AZD + 2Gy / CI TTFields + 2Gy + AZD / CI TTFields + AZD / CI TTFields + CP / CI TTFields + ETOP / CI Irino + 2Gy / CI TTFields + Irino / CI TTFields + Irino + 2Gy: CI>1 synergistic; for surviving fraction: agent as shown in figure
Procedure: as §1, with “killing. Then, the cells were irradiated (at a dose of 2Gy) for less than a minute (e.g., 3.25 Gy/min) and immediately plated for survival.” for “killing.”
as §3, §4

[4] = test system: H157 cells; experiment: Clonogenic cell survival assay, H157 cells; settings: for CI 5FU + 2Gy / CI TTFields + 5FU / CI TTFields + 5FU + 2Gy / CI AZD + 2Gy / CI TTFields + 2Gy + AZD / CI TTFields + AZD / CI TTFields + CP / CI TTFields + ETOP / CI Irino + 2Gy / CI TTFields + Irino / CI TTFields + Irino + 2Gy: CI>1 synergistic; for surviving fraction: agent as shown in figure
Procedure: as §1, with “killing. Then, the cells were irradiated (at a dose of 2Gy) for less than a minute (e.g., 3.25 Gy/min) and immediately plated for survival.” for “killing.”
as §3, §4

[5] = test system: H1299 cells; experiment: Clonogenic cell survival assay, H1299 cells; settings: 48 h, CI>1 synergistic
[6] = test system: H157 cells; experiment: Clonogenic cell survival assay, H157 cells; settings: 48 h, CI>1 synergistic
[7] = test system: NSCLC; experiment: Cell survival of NSCLC cells with CP/ETP with/without TTFields (FIG. 6); settings: HSA approach
Procedure: as §1, with “killing. Then, the cells were irradiated (at a dose of 2Gy) for less than a minute (e.g., 3.25 Gy/min) and immediately plated for survival.” for “killing.”
FIG. 6 depicts example effects of TTFields, Cisplatin, Etoposide, and a combination thereof on NSCLC. […] CP and ETP were tested alone or in combination and with/without TTFields.

## O=c1[nH]cc(F)c(=O)[nH]1 [5FU, 5-Fluorouracil]
[1]
  effect of combinations of TTFields, agent and/or IR on cell survival: synergistic effects
  surviving fraction: significantly reduced
[2]
  effect of combinations of TTFields, agent and/or IR on cell survival: synergistic effects
  surviving fraction: significantly reduced
[3]
  effect of combinations of TTFields, agent and/or IR on cell survival: synergistic effects
  surviving fraction: significantly reduced
[3]; 24 h
  CI 5FU + 2Gy: 1.254
  CI TTFields + 5FU: 1.352
  CI TTFields + 5FU + 2Gy: 1.762
[3]; 48 h
  CI 5FU + 2Gy: 0.950
  CI TTFields + 5FU: 1.348
[3]; 72 h
  CI TTFields + 5FU: 1.326
  CI TTFields + 5FU + 2Gy: 1.345
[4]
  effect of combinations of TTFields, agent and/or IR on cell survival: synergistic effects
  surviving fraction: significantly reduced
[4]; 24 h
  CI 5FU + 2Gy: 0.894
  CI TTFields + 5FU: 1.559
  CI TTFields + 5FU + 2Gy: 1.433
[4]; 48 h
  CI 5FU + 2Gy: 0.962
  CI TTFields + 5FU + 2Gy: 1.783
[4]; 72 h
  CI 5FU + 2Gy: 1.125
  CI TTFields + 5FU: 1.106
  CI TTFields + 5FU + 2Gy: 1.658
[5]
  CI TTFields + 5FU + 2Gy: 1.263
[6]
  CI TTFields + 5FU: 1.252

## C[C@@H]1COCCN1c1cc(C2([S@](C)(=N)=O)CC2)nc(-c2cc[nH]c3nccc2-3)n1 [AZD, Ceralasertib (AZD6738)]
[1]
  effect of combinations of TTFields, agent and/or IR on cell survival: synergistic effects
  surviving fraction: significantly reduced
[1]; 24 h
  CI AZD + 2Gy: 0.894
  CI TTFields + 2Gy + AZD: 1.068
  CI TTFields + AZD: 1.088
[1]; 48 h
  CI AZD + 2Gy: 0.879
  CI TTFields + 2Gy + AZD: 1.153
  CI TTFields + AZD: 0.970
[1]; 72 h
  CI AZD + 2Gy: 1.030
  CI TTFields + 2Gy + AZD: 1.514
  CI TTFields + AZD: 1.072
[2]
  effect of combinations of TTFields, agent and/or IR on cell survival: synergistic effects
  surviving fraction: significantly reduced
[2]; 24 h
  CI AZD + 2Gy: 1.018
  CI TTFields + 2Gy + AZD: 1.272
  CI TTFields + AZD: 1.049
[2]; 48 h
  CI AZD + 2Gy: 1.158
  CI TTFields + 2Gy + AZD: 2.394
  CI TTFields + AZD: 1.550
[2]; 72 h
  CI AZD + 2Gy: 1.011
  CI TTFields + 2Gy + AZD: 2.674
  CI TTFields + AZD: 1.287
[3]
  effect of combinations of TTFields, agent and/or IR on cell survival: synergistic effects
  surviving fraction: significantly reduced
[3]; 24 h
  CI AZD + 2Gy: 1.127
  CI TTFields + 2Gy + AZD: 3.553
  CI TTFields + AZD: 1.070
[3]; 48 h
  CI TTFields + 2Gy + AZD: 2.535
[3]; 72 h
  CI AZD + 2Gy: 1.143
  CI TTFields + 2Gy + AZD: 2.206
  CI TTFields + AZD: 1.092
[4]
  effect of combinations of TTFields, agent and/or IR on cell survival: synergistic effects
  surviving fraction: significantly reduced
[4]; 24 h
  CI AZD + 2Gy: 1.498
  CI TTFields + 2Gy + AZD: 2.430
  CI TTFields + AZD: 1.048
[4]; 48 h
  CI AZD + 2Gy: 1.292
  CI TTFields + 2Gy + AZD: 2.062
[4]; 72 h
  CI AZD + 2Gy: 3.115
  CI TTFields + 2Gy + AZD: 4.874
  CI TTFields + AZD: 1.036
[5]
  CI AZD + 2Gy: 1.215
  CI TTFields + AZD: 1.242
[6]
  CI TTFields + AZD: 1.072

## N.N.[Cl][Pt][Cl] [CP, Cisplatin]
[3]; 24 h
  CI TTFields + CP: 1.140
[3]; 48 h
  CI TTFields + CP: 1.021
[3]; 72 h
  CI TTFields + CP: 1.225
[4]; 24 h
  CI TTFields + CP: 0.887
[4]; 48 h
  CI TTFields + CP: 0.869
[4]; 72 h
  CI TTFields + CP: 1.079
[7]
  cell killing capacity in combination with TTFields: synergistically enhanced

## COc1cc([C@@H]2c3cc4c(cc3[C@@H](O[C@@H]3O[C@@H]5CO[C@@H](C)O[C@H]5[C@H](O)[C@H]3O)[C@H]3COC(=O)[C@H]23)OCO4)cc(OC)c1O [ETOP, Etoposide]
[3]; 24 h
  CI TTFields + ETOP: 1.387
[3]; 48 h
  CI TTFields + ETOP: 1.174
[3]; 72 h
  CI TTFields + ETOP: 1.140
[4]; 24 h
  CI TTFields + ETOP: 0.842
[4]; 72 h
  CI TTFields + ETOP: 1.021
[7]
  cell killing capacity in combination with TTFields: synergistically enhanced
[6]
  CI TTFields + ETOP: 0.995

## CCc1c2c(nc3ccc(OC(=O)N4CCC(N5CCCCC5)CC4)cc13)-c1cc3c(c(=O)n1C2)COC(=O)[C@]3(O)CC [Irino, Irinotecan]
[1]
  effect of combinations of TTFields, agent and/or IR on cell survival: synergistic effects
  surviving fraction: significantly reduced
[1]; 24 h
  CI Irino + 2Gy: 1.022
  CI TTFields + Irino: 1.082
  CI TTFields + Irino + 2Gy: 2.360
[1]; 48 h
  CI Irino + 2Gy: 1.009
  CI TTFields + Irino: 0.974
  CI TTFields + Irino + 2Gy: 2.335
[1]; 72 h
  CI Irino + 2Gy: 1.132
  CI TTFields + Irino: 1.030
  CI TTFields + Irino + 2Gy: 4.454
[3]
  effect of combinations of TTFields, agent and/or IR on cell survival: synergistic effects
  surviving fraction: significantly reduced
[3]; 24 h
  CI Irino + 2Gy: 1.244
  CI TTFields + Irino: 1.388
  CI TTFields + Irino + 2Gy: 2.365
[3]; 48 h
  CI Irino + 2Gy: 1.012
  CI TTFields + Irino + 2Gy: 2.130
[3]; 72 h
  CI Irino + 2Gy: 1.027
  CI TTFields + Irino: 2.081
  CI TTFields + Irino + 2Gy: 2.051
[4]
  effect of combinations of TTFields, agent and/or IR on cell survival: synergistic effects
  surviving fraction: significantly reduced
[4]; 24 h
  CI Irino + 2Gy: 1.064
  CI TTFields + Irino: 1.483
  CI TTFields + Irino + 2Gy: 1.763
[4]; 48 h
  CI Irino + 2Gy: 1.244
  CI TTFields + Irino: 1.174
  CI TTFields + Irino + 2Gy: 1.463
[4]; 72 h
  CI Irino + 2Gy: 1.275
  CI TTFields + Irino: 1.136
  CI TTFields + Irino + 2Gy: 2.501
[5]
  CI TTFields + Irino: 1.821

## O=C(c1cc(Cc2n[nH]c(=O)c3ccccc23)ccc1F)N1CCN(C(=O)C2CC2)CC1 [Olap, Olaparib]
[1]
  effect of combinations of TTFields, agent and/or IR on cell survival: synergistic effects
  surviving fraction: significantly reduced
[1]; 24 h
  CI 2Gy + Olap: 0.890
  CI TTFields + 2Gy + Olap: 1.589
  CI TTFields + Olap: 1.035
[1]; 48 h
  CI 2Gy + Olap: 0.975
  CI TTFields + 2Gy + Olap: 1.817
  CI TTFields + Olap: 1.209
[1]; 72 h
  CI 2Gy + Olap: 1.030
  CI TTFields + 2Gy + Olap: 2.028
  CI TTFields + Olap: 1.215
[2]
  effect of combinations of TTFields, agent and/or IR on cell survival: synergistic effects
  surviving fraction: significantly reduced
[2]; 24 h
  CI 2Gy + Olap: 1.550
  CI TTFields + 2Gy + Olap: 2.863
  CI TTFields + Olap: 1.101
[2]; 48 h
  CI 2Gy + Olap: 1.582
  CI TTFields + 2Gy + Olap: 2.066
  CI TTFields + Olap: 0.973
[2]; 72 h
  CI 2Gy + Olap: 1.462
  CI TTFields + 2Gy + Olap: 3.818
  CI TTFields + Olap: 1.042
